According to ChEMBL document CHEMBL5291721, “A preclinical secondary pharmacology resource illuminates target-adverse drug reaction associations of marketed drugs” (Nat Commun, 2023):

Columns and labels:
Bile salt export pump = Bile salt export pump (Homo sapiens, UniProt O95342); assay type: functional
Adenosine receptor A3 = molecular target: T1, Adenosine receptor A3 (Homo sapiens, UniProt P0DMS8)
T1 sequence (P0DMS8 whole entry): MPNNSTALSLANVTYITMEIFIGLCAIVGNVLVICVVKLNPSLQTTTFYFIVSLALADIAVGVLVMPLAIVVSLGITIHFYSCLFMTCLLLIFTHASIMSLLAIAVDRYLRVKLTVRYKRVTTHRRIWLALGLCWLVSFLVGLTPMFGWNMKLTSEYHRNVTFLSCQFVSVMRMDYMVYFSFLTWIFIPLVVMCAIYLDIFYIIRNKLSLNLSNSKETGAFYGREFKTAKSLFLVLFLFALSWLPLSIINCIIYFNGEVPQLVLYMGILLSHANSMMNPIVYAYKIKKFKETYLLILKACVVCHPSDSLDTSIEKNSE

[1] = molecular target: T2, Alpha-2C adrenergic receptor (Homo sapiens, UniProt P18825); assay type: functional
T2 sequence (P18825 whole entry): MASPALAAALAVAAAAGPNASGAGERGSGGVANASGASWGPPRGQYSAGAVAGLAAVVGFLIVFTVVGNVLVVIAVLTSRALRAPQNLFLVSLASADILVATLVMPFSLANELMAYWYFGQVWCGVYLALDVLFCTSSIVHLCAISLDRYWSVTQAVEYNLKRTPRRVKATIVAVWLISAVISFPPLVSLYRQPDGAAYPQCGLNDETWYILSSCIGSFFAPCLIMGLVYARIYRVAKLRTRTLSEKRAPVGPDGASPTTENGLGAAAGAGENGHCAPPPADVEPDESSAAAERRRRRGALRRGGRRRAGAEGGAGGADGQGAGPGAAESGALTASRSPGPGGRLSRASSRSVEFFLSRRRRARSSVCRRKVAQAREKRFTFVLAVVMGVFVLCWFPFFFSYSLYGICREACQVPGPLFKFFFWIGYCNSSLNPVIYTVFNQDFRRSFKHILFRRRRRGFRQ

[2] = molecular target: 5-hydroxytryptamine receptor 2B (Homo sapiens, UniProt P41595); assay type: functional, cell-based
Motilin receptor = Motilin receptor (Homo sapiens, UniProt O43193)
[3] = molecular target: Sodium-dependent dopamine transporter (Homo sapiens, UniProt Q01959)
[4] = molecular target: T3, 5-hydroxytryptamine receptor 3A (Homo sapiens, UniProt P46098); assay type: functional
T3 sequence (P46098 whole entry): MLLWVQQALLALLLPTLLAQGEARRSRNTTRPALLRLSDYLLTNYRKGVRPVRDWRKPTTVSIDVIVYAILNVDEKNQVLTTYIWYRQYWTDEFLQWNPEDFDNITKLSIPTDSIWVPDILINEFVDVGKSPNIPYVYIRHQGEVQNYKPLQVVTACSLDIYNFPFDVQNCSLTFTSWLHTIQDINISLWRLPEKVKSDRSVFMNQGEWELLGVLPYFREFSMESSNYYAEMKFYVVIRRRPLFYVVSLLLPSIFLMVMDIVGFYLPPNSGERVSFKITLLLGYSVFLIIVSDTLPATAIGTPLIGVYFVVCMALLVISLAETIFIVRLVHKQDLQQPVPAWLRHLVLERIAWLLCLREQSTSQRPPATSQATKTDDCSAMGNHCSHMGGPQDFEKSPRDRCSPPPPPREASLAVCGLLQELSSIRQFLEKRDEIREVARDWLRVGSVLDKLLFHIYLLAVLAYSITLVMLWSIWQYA

[5] = molecular target: cGMP-inhibited 3',5'-cyclic phosphodiesterase 3A (Homo sapiens, UniProt Q14432); assay type: functional
[6] = molecular target: 3',5'-cyclic-AMP phosphodiesterase 4D (Homo sapiens, UniProt Q08499); assay type: functional
[7] = molecular target: Delta-type opioid receptor (Homo sapiens, UniProt P41143)
[8] = molecular target: T4, Alpha-2A adrenergic receptor (Homo sapiens, UniProt P08913); assay type: functional, cell-based
T4 sequence (P08913 whole entry): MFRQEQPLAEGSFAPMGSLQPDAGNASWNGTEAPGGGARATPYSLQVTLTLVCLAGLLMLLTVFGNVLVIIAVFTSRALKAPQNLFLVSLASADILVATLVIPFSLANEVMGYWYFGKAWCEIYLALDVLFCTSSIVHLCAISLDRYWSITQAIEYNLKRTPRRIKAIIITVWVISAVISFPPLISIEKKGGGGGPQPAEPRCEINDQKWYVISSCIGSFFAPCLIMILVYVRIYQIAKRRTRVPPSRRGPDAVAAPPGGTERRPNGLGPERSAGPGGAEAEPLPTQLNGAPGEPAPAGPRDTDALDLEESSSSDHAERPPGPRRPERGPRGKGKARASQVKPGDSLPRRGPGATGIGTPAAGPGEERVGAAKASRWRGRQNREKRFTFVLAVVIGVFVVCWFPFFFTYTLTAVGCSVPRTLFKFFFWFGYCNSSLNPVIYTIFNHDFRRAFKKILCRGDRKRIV

[9] = molecular target: Voltage-gated inwardly rectifying potassium channel KCNH2 (Homo sapiens, UniProt Q12809); assay type: functional; settings: read-out: AC50
D(1A) dopamine receptor = D(1A) dopamine receptor (Homo sapiens, UniProt P21728); assay type: functional, cell-based
[10] = molecular target: T5, Muscarinic acetylcholine receptor M2 (Homo sapiens, UniProt P08172); assay type: functional, cell-based
T5 sequence (P08172 whole entry): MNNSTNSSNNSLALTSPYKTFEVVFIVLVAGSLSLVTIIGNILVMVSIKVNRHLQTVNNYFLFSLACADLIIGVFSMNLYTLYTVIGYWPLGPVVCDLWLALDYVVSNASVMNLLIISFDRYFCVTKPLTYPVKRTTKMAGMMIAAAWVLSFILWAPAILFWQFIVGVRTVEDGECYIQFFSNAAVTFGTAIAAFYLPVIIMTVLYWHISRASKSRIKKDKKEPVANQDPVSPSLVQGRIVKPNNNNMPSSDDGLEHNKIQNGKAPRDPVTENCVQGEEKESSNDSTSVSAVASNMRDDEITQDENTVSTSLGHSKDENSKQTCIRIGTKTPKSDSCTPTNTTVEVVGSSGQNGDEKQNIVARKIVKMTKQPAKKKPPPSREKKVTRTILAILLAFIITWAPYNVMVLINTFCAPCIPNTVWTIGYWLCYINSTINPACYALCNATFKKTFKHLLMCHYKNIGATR
Further: assay procedure not described here.

Motilin receptor, sequence (O43193 whole entry): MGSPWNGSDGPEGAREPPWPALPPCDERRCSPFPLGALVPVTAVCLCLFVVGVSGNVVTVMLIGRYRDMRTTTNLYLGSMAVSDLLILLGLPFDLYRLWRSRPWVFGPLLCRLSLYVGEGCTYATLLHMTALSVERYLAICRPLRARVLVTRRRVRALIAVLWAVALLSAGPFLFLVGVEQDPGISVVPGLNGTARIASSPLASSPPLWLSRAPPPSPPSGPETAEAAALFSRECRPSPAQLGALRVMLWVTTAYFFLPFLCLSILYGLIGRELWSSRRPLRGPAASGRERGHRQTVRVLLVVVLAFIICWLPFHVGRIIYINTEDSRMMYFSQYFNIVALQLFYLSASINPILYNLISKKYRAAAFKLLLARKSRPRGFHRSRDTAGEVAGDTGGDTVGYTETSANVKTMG
Sodium-dependent dopamine transporter, sequence (Q01959 whole entry): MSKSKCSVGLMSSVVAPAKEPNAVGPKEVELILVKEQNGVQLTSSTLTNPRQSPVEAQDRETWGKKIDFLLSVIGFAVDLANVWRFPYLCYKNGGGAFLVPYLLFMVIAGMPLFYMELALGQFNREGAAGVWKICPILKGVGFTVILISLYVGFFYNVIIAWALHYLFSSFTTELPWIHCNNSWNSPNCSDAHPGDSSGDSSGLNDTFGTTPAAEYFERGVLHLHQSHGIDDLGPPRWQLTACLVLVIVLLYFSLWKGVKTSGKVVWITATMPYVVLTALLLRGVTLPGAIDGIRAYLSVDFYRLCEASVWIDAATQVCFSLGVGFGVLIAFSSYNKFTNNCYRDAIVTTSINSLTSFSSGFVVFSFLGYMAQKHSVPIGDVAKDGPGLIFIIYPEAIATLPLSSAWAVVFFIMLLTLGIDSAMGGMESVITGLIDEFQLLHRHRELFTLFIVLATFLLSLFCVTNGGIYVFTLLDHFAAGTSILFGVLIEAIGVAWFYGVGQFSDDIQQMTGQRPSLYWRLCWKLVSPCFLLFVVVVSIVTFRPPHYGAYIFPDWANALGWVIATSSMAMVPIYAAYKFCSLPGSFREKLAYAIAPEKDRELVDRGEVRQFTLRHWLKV
Delta-type opioid receptor, sequence (P41143 whole entry): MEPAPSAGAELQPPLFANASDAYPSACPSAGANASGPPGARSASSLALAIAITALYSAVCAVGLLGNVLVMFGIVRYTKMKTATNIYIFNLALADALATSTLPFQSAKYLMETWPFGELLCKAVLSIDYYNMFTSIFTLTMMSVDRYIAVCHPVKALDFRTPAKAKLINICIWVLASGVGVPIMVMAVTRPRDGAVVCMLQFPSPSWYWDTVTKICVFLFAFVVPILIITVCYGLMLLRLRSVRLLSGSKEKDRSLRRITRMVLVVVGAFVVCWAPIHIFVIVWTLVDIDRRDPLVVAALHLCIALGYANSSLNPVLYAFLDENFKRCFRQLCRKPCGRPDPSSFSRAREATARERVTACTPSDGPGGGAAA
cGMP-inhibited 3',5'-cyclic phosphodiesterase 3A, sequence (Q14432 whole entry): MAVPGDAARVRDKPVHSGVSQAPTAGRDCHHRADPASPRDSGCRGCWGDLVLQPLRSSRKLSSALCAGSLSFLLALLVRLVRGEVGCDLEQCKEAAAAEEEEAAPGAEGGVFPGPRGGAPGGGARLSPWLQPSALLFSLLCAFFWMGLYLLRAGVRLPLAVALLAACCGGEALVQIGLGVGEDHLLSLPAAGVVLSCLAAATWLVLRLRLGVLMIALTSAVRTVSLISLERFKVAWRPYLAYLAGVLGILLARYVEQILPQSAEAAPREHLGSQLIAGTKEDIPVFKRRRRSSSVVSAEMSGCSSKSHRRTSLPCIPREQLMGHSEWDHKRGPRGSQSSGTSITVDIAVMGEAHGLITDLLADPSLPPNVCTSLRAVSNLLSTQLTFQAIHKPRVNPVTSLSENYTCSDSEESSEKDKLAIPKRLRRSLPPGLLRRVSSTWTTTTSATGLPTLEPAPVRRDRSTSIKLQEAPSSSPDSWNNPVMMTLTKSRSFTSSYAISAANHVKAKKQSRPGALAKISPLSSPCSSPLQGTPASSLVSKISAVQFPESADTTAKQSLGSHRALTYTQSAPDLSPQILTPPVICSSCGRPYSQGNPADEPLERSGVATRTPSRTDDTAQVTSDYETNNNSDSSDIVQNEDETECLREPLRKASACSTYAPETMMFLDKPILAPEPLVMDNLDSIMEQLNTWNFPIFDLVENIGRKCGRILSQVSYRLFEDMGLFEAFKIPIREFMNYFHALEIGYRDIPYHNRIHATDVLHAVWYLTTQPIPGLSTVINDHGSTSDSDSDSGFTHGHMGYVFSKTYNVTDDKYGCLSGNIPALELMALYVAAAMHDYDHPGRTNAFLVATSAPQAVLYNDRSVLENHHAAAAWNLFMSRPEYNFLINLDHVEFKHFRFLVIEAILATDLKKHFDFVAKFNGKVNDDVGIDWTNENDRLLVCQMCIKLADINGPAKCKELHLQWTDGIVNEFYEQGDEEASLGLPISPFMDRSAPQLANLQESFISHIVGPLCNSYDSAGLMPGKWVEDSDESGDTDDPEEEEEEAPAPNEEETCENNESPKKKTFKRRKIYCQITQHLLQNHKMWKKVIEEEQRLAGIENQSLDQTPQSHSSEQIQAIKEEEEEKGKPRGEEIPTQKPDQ
3',5'-cyclic-AMP phosphodiesterase 4D, sequence (Q08499 whole entry): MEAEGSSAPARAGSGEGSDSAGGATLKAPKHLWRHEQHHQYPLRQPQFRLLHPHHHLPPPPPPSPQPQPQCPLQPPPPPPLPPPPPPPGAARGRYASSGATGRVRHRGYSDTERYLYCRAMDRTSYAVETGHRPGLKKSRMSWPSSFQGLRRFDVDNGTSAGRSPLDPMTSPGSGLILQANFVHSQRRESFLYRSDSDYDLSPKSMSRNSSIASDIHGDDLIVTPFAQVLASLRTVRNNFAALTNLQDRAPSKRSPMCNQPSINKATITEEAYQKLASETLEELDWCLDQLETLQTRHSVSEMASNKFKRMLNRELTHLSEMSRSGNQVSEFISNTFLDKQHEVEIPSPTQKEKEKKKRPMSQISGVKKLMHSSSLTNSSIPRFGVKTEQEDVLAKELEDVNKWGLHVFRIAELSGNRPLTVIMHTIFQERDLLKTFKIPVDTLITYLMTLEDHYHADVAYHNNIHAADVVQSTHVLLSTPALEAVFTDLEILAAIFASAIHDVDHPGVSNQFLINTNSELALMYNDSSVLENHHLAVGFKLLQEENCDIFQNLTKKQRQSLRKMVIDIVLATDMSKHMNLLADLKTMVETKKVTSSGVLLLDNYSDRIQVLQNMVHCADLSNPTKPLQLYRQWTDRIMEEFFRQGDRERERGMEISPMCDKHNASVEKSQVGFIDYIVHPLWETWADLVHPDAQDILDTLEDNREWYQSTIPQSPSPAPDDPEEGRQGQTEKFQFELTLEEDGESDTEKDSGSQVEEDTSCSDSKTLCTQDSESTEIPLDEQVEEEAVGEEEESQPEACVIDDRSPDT
Bile salt export pump, sequence (O95342 whole entry): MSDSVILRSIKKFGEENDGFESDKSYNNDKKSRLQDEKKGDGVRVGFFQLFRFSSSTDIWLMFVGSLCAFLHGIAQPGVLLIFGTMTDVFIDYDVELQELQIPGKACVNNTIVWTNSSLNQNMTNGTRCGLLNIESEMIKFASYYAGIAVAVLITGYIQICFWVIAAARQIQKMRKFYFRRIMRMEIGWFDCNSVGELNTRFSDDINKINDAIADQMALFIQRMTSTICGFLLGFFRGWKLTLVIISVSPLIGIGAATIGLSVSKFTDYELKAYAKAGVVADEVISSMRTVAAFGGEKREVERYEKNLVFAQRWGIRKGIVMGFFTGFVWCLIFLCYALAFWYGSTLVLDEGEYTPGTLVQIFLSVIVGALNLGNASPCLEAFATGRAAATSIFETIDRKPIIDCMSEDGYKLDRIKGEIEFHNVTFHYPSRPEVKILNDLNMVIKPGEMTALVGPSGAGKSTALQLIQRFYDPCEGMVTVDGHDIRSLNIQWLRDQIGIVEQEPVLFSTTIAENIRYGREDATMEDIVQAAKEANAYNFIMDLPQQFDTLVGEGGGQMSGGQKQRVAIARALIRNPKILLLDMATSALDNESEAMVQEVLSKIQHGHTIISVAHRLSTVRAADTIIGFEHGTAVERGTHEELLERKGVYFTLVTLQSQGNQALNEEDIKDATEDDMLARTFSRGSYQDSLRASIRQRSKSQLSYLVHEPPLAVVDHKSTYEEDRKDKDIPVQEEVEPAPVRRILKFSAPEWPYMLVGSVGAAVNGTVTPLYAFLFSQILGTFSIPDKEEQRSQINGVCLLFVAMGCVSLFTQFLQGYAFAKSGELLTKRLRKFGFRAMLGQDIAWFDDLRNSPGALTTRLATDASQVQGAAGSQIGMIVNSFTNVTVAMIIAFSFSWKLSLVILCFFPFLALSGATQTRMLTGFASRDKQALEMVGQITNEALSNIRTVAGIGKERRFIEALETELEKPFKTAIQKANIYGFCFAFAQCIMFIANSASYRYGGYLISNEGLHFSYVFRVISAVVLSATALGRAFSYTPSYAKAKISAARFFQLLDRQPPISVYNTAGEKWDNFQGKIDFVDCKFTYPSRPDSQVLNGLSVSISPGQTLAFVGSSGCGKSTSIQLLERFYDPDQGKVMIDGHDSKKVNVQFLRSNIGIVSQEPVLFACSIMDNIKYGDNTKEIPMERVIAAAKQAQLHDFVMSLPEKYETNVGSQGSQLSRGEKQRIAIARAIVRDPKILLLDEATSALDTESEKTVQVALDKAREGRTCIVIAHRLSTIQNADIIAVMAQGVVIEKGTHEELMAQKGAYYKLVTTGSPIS

Row | SMILES | AC50 (Bile salt export pump) | AC50 (Adenosine receptor A3) | AC50 [1] | AC50 [2] | AC50 (Motilin receptor) | AC50 [3] | AC50 [4] | AC50 [5] | AC50 [6] | AC50 [7] | AC50 [8] | AC50 [9] | AC50 (D(1A) dopamine receptor) | AC50 [10]
1 | CCN(CC)CCNC(=O)c1cc(Cl)c(N)cc1OC [METOCLOPRAMIDE] | > 300 µM | > 30 µM | 3 µM | > 10 µM | > 10 µM | > 10 µM | 3.55 µM | > 30 µM | > 30 µM | > 30 µM | > 10 µM | 2.77 µM | > 10 µM | –
2 | NC(N)=Nc1nc(CSCCC(N)=NS(N)(=O)=O)cs1 [FAMOTIDINE] | > 300 µM | > 30 µM | > 10 µM | > 10 µM | > 10 µM | > 10 µM | > 10 µM | > 10 µM | > 10 µM | > 10 µM | > 10 µM | – | > 10 µM | > 10 µM
3 | CC(N)Cc1ccccc1 (stereo not given) [AMPHETAMINE] | > 300 µM | > 30 µM | > 30 µM | > 30 µM | > 30 µM | – | > 30 µM | > 30 µM | > 30 µM | > 30 µM | > 30 µM | > 30 µM | – | > 30 µM
4 | CCC[C@@H]1C[C@@H](C(=O)N[C@@H]([C@H]2O[C@H](SC)[C@H](O)[C@@H](O)[C@H]2O)[C@H](C)Cl)N(C)C1 [CLINDAMYCIN] | > 300 µM | > 30 µM | > 10 µM | > 10 µM | > 10 µM | > 10 µM | > 30 µM | > 30 µM | > 30 µM | > 30 µM | > 10 µM | – | > 10 µM | > 10 µM
5 | CNC(=O)c1cc(Oc2ccc(NC(=O)Nc3ccc(Cl)c(C(F)(F)F)c3)cc2)ccn1 [SORAFENIB] | 2 µM | 1.88 µM | > 30 µM | – | 2.8 µM | 6.85 µM | > 30 µM | > 30 µM | > 30 µM | > 30 µM | > 30 µM | > 30 µM | > 30 µM | > 30 µM
6 | Cc1cccc(C)c1OCC(C)N (stereo not given) [MEXILETINE] | > 300 µM | > 30 µM | > 30 µM | > 30 µM | > 30 µM | > 30 µM | – | > 30 µM | > 30 µM | – | > 30 µM | > 30 µM | > 30 µM | > 30 µM
7 | O=C(CCCCCCC(=O)Nc1ccccc1)NO [VORINOSTAT] | > 300 µM | > 30 µM | > 30 µM | > 30 µM | > 30 µM | > 30 µM | > 30 µM | > 30 µM | > 30 µM | > 30 µM | > 30 µM | – | > 30 µM | > 30 µM
8 | CN1CCCC(n2nc(Cc3ccc(Cl)cc3)c3ccccc3c2=O)CC1 (stereo not given) [AZELASTINE] | > 100 µM | > 30 µM | 2.4 µM | – | > 30 µM | 7.3 µM | 2.4 µM | > 30 µM | > 30 µM | > 30 µM | > 30 µM | – | > 30 µM | –
9 | COC(=O)C1=C(C)NC(C)=C(C(=O)OCC(C)C)C1c1ccccc1[N+](=O)[O-] (stereo not given) [NISOLDIPINE] | 8 µM | 0.614 µM | > 10 µM | > 10 µM | > 10 µM | > 10 µM | > 30 µM | 6.2 µM | 11 µM | > 30 µM | > 10 µM | – | > 30 µM | > 10 µM
10 | CN(CCOc1ccc(NS(C)(=O)=O)cc1)CCc1ccc(NS(C)(=O)=O)cc1 [DOFETILIDE] | > 300 µM | > 30 µM | > 10 µM | > 30 µM | > 10 µM | > 10 µM | > 30 µM | > 30 µM | > 30 µM | > 30 µM | > 30 µM | – | > 10 µM | > 30 µM
11 | COC(=O)N[C@H](C(=O)N1CCC[C@H]1c1nc(-c2ccc(-c3ccc(-c4c[nH]c([C@@H]5CCCN5C(=O)[C@@H](NC(=O)OC)C(C)C)n4)cc3)cc2)c[nH]1)C(C)C | 5.9 µM | > 30 µM | > 30 µM | > 30 µM | > 30 µM | > 30 µM | > 30 µM | > 30 µM | > 30 µM | > 30 µM | > 30 µM | – | > 30 µM | > 30 µM
12 | OCc1cc([C@@H](O)CNCCCCCCOCCOCc2c(Cl)cccc2Cl)ccc1O [VILANTEROL] | 44 µM | 29 µM | > 30 µM | > 30 µM | 14 µM | 6.7 µM | > 30 µM | > 30 µM | 18 µM | > 30 µM | > 30 µM | – | 2.2 µM | > 30 µM
13 | COc1cc2c(cc1OC)C(=O)C(CC1CCN(Cc3ccccc3)CC1)C2 (stereo not given) [DONEPEZIL] | > 300 µM | > 30 µM | 6.2 µM | – | > 10 µM | > 30 µM | > 30 µM | > 30 µM | > 30 µM | > 30 µM | > 10 µM | – | > 10 µM | –
14 | O=C(NC[C@H]1CN(c2ccc(N3CCOCC3=O)cc2)C(=O)O1)c1ccc(Cl)s1 [RIVAROXABAN] | 100 µM | > 30 µM | > 30 µM | > 30 µM | – | > 30 µM | > 30 µM | > 30 µM | > 30 µM | > 30 µM | > 30 µM | – | > 30 µM | > 30 µM
